Assay results from patent US20080090847A1, “HETEROCYCLIC COMPOUNDS AND USES THEREOF AS D-ALANYL-D-ALANINE LIGASE INHIBITORS” (PLIVA D.D., priority 2001, published 2008).
pKi: −log10 of the molar value. Like-named read-outs stand apart in the source and are kept apart here.

Key:
Type in all cases: biochemical
[1] = target: E. coli ligase (D-Ala-D-Ala ligase) (Escherichia coli, UniProt P07862); experiment: D-Ala-D-Ala ligase Ki determination (PK/LDH coupled assay), E. coli ligase
Excerpt: (§1) Inhibition of D-Ala-D-Ala ligase can be assayed for using the pyruvate kinase/lactate dehydrogenase (PK/LDH) assay described in Example 2, and as described in the literature (e.g., in Sarthy et al., Anal. Biochem., 254:288-290, 1997). In the bacterial cell wall synthesis process, the ligase catalyzes the conversion of adenosine triphosphate (ATP) to adenosine diphosphate (ADP) concurrent with the ligation of two D-alanine residues to form D-alanyl-D-alanine. PK then regenerates ATP from the ADP thus created simultaneously with the conversion of phosphopyruvate to pyruvate. LDH catalyzes the reduction of pyruvate to lactate by converting NADH to NAD^+. By monitoring the production rate of NAD^+ (e.g., using UV/Vis spectroscopy), D-Ala-D-Ala ligase activity can be ascertained.
(§2) The protein sequence for the enzyme D-ala-D-ala ligase has been determined in a variety of different bacterial species using standard techniques in biochemistry (see Table 5). The protein sequence from any species can be overexpressed in an appropriate host organism such as E. coli using standard molecular biology techniques. The ligase enzyme can be harvested, purified, and used in the above described assay for the determination of inhibitory activity.
(§3) The synthetic analogs of Example 1 were dissolved in dimethylsulfoxide (DMSO) at a concentration of 100 mM on the day of screening, using a vortex mixer and sonication if necessary for dissolution. The solutions were kept at room temperature until screening was completed.
(§4) A 10 mM NADH (Sigma) stock solution was prepared freshly on the day of screening by dissolving 32 μmol NADH in 3.2 ml double-distilled water. The NADH solution was kept on ice. Stock solutions containing 50 mM phosphoenolpyruvate (PEP; Sigma), 500 μM HERMES, 30 mM adenosine triphosphate (ATP; Sigma), 200 mM D-alanine (Sigma), and 4× core buffer (i.e., 400 mM Hepes, 40 mM magnesium chloride, and 40 mM potassium chloride), were also stored on ice. A stock solution of pyruvate kinase/lactate dehydrogenase (PK/LDH) was also obtained from Sigma.
(§5) Table of Final concentrations are dependent on the type of screening:
(§6) For each set of test compounds, two 96-well plates were used: an inhibitor plate and an enzyme plate. The test compounds correspond to rows A-G of the plates. Adenosine (Sigma) dissolved in DMSO, used as a control, corresponds to row H of each plate.
(§7) The enzyme solution was allowed to equilibrate to 25° C.
(§8) Dilutions were prepared in the inhibitor plate as follows: 50 μl DMSO was added to each well of columns 1-11, rows A-G, of the inhibitor plate. 50 μl DMSO were added to each well of columns 1-11, row H. 100 μl of the 100 mM test solutions were added to column 12, rows A-G (i.e., the first compound in row A, the second compound in row B, and so on). 100 μl of a 100 mM Adenosine solution was added to column 12, row H.
(§9) 50 μl of the test solution was transferred from column 12 in each row to column 11 of the a same row, mixing the solution with the DMSO. 50 μl of solution was then transferred from column 11 in each row to column 10 in the same row, 50 μl from column 10 was transferred to column 9, and so on, down to column 2. No solution was transferred to column 1. Multichannel pipettors were used in making the serial dilution.
(§10) 120 μl of the enzyme solution was added to each well of the enzyme plate.
(§11) The substrate solutions were brought to 25° C.
(§12) The analogs and enzymes were then incubated at 25° C. Since the reactions were initiated in columns, the analog addition is also in columns. At t=0 minutes, 5 μl analog was transferred from each well of columns 1-4 of the inhibitor plate to the corresponding well of the enzyme plate. At t=4 minutes, 5 μl analog was transferred from each well of columns 5-8 of the inhibitor plate to the corresponding well of the enzyme plate. At t=8 minutes, 5 μl analog was transferred from each well of columns 9-12 of the inhibitor plate to the corresponding well of the enzyme plate. The inhibitor plate was then frozen. […]

[2] = target: Staph ligase (D-Ala-D-Ala ligase) (Staphylococcus aureus, UniProt Q5HEB7); experiment: D-Ala-D-Ala ligase Ki determination (PK/LDH coupled assay), Staph ligase; conditions: for pKi: Table 2, read-out: Staph ligase; for Ki: Table 5, Ki/ATP, avg, read-out: Staph ligase Ki/ATP (uM) avg
Excerpt: as §1, §2, §3, §4, §5, §6, §7, §8, §9, §10, §11, §12

[3] = target: T1, Strep ligase (D-Ala-D-Ala ligase) (Streptococcus pneumoniae serotype 4, UniProt P0CB57); experiment: D-Ala-D-Ala ligase Ki determination (PK/LDH coupled assay), Strep ligase; conditions: Table 5; Ki/ATP, avg; read-out: Strep ligase Ki/ATP (uM) avg
T1 sequence (P0CB57 1-347): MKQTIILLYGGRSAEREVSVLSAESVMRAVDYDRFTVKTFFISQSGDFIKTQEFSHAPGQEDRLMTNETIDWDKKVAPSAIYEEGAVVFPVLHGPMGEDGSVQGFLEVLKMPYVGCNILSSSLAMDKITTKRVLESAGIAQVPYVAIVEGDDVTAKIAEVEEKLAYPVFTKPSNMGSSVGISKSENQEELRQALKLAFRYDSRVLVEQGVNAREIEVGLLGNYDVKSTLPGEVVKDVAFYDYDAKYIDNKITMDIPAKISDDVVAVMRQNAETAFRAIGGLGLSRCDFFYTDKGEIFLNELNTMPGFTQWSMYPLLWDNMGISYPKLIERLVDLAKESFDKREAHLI
Excerpt: as §1, §2, §3, §4, §5, §6, §7, §8, §9, §10, §11, §12

[4] = target: H. Influenzae ligase (D-Ala-D-Ala ligase) (Haemophilus influenzae, UniProt P44405); experiment: D-Ala-D-Ala ligase Ki determination (PK/LDH coupled assay), H. influenzae ligase; conditions: Table 5; Ki/ATP, avg; read-out: H. Influenzae ligase Ki/ATP (uM) avg
Excerpt: as §1, §2, §3, §4, §5, §6, §7, §8, §9, §10, §11, §12

[5] = Table 1, read-out: Ki (E. coli ligase)/μM
[6] = E. coli ligase Ki/ATP (uM) avg, Table 5, Ki/ATP, avg

Sequence of Staph ligase (D-Ala-D-Ala ligase) (Q5HEB7 whole entry): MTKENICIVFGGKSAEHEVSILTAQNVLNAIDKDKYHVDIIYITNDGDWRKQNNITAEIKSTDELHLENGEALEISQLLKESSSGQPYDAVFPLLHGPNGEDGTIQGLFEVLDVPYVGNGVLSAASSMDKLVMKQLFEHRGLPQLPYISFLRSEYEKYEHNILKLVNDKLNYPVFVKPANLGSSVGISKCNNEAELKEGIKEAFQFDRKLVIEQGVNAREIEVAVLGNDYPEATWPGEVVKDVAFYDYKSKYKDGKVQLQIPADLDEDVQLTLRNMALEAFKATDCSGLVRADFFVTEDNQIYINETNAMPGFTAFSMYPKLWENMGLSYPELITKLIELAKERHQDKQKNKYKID
Sequence of H. Influenzae ligase (D-Ala-D-Ala ligase) (P44405 whole entry): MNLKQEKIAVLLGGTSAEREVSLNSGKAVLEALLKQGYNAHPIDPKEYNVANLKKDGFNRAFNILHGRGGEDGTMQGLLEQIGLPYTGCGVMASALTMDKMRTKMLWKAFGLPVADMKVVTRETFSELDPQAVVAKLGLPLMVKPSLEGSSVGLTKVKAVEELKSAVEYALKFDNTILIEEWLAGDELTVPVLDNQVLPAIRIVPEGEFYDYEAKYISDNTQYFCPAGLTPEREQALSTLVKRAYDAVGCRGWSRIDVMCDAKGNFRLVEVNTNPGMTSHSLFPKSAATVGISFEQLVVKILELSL

Structure (SMILES)	Ki [1, 5] [µM]	other results
CCN(c1ncc2c(N)nc(N)nc2n1)[C@H](C)c1ccc(C)c2ccccc12 [—CH2CH3|CH3|R|CH3]	–	Ki ([1]; E. coli ligase (μM), Table 2): 0.102 µM; pKi [2]: 4.15
CN(CCC=C1c2ccccc2CCc2ccccc21)c1ncc2c(N)nc(N)nc2n1	9	–
CC(Nc1ncc2c(N)nc(N)nc2n1)C(=O)Nc1ccc2ccccc2c1 (centres unmarked)	29	–
Nc1nc(N)c2cc(NCc3ccc(C(=O)NCc4ccccn4)cc3)ccc2n1	73	–
CCOc1ccc2ccccc2c1CN(CC(=O)O)c1ncc2c(N)nc(N)nc2n1	8.7	–
CC(c1cccc2ccccc12)N(C)c1ncc2c(N)nc(N)nc2n1 (centres unmarked) [—CH3|CH3|R/S|H]	–	Ki ([1]; E. coli ligase (μM), Table 2): 0.718 µM; pKi [2]: 5.03
Nc1nc(N)c2cnc(Nc3ccc(Cl)c(C(=O)NCc4cccs4)c3)nc2n1	0.5	–
CCOc1ccc2ccccc2c1CN(CCCCN)c1ncc2c(N)nc(N)nc2n1 [N7-(4-Amino-butyl)-N-7-(2-ethoxynaphthalen-1-ylmethyl)-pyrimido[4,5-d]pyrimidine-2,4,7-triamine]	–	Ki [3]: 4.5 µM; Ki [1, 6]: 0.105 µM; pKi ([1]; Ki against the ligase isolated from E. coli): 6.99; Ki [2]: 15 µM; Ki [4]: 0.52 µM
CC1C(C)N(c2ncc3c(N)nc(N)nc3n2)C(C)C(C)N1c1ncc2c(N)nc(N)nc2n1 (centres unmarked)	2	–
Nc1nc(N)c2ccc(-c3ccccc3)nc2n1	31	–
Nc1nc(N)c2cnc(NCc3ccc(Cl)c(Cl)c3)nc2n1	20	–
Nc1nc(N)c2cnc(NCCNC(=O)c3c(Cl)cccc3Cl)nc2n1	12	–
CC(c1cccc2ccccc12)N(CCCCN)c1ncc2c(N)nc(N)nc2n1 (centres unmarked) [drawing 55]	–	Ki [3]: 23.1 µM; Ki [1, 6]: 0.135 µM; Ki [2]: 32 µM; Ki [4]: 4.2 µM
CN(Cc1cc2ccccc2s1)c1ncc2c(N)nc(N)nc2n1	2.9	–
CN(Cc1cnc2ccccc2c1)c1ncc2c(N)nc(N)nc2n1	1	–
Cc1ccc(C(C)C)cc1OCc1ncc2c(N)nc(N)nc2n1	20	–
Nc1nc(N)c2cnc(/C=C/c3ccccc3)nc2n1	14	–
CN(Cc1cccc2ccccc12)c1ncc2c(N)nc(N)nc2n1	3	–
Nc1nc(N)c2nc(CNc3cc(Cl)cc(Cl)c3)cnc2n1	1	–
Cc1ccc(C(C)N(C)c2ncc3c(N)nc(N)nc3n2)c2ccccc12 (centres unmarked) [—CH3|CH3|R/S|CH3, N7-Methyl-N7-[1-(4-methyl-naphthalen-1-yl)-ethyl]-pyrimido[4,5-d]pyrimidine-2,4,7-triamine]	–	Ki ([1]; E. coli ligase (μM), Table 2): 0.277 µM; pKi [2]: 4.91
Nc1nc(N)c2cnc(N[C@H]3CCCc4ccccc43)nc2n1	16	–
Nc1nc(N)c2cnc(N3CCC(O)(c4cccc(F)c4)CC3)nc2n1	0.59	–
